Data as given in patent US20080114007A1 (priority 2006, published 2008).

Biological target: CSF-1R (Homo sapiens, UniProt P07333)
Assay: Peptide (non-phosphorylated) assay, fluorescence polarization competition immunoassay
Type: biochemical
Settings: 0.7 nM CSF-1R, 308 μM SYEGNSYTFIDPTQ peptide, 1 mM ATP, 80 min; mean of at least three determinations; read-out: c-fms Peptide IC50
Outline: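 Human CSF-1R kinase reaction started with ATP and run 80 min at room temperature, then stopped with EDTA. Phosphopeptide detected by fluorescence polarization competition using anti-phosphotyrosine antibody and PTK green tracer after 30 min. Controls used 4% DMSO, with EDTA added before reaction start for positive controls.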

Sequence of CSF-1R (P07333 20-972): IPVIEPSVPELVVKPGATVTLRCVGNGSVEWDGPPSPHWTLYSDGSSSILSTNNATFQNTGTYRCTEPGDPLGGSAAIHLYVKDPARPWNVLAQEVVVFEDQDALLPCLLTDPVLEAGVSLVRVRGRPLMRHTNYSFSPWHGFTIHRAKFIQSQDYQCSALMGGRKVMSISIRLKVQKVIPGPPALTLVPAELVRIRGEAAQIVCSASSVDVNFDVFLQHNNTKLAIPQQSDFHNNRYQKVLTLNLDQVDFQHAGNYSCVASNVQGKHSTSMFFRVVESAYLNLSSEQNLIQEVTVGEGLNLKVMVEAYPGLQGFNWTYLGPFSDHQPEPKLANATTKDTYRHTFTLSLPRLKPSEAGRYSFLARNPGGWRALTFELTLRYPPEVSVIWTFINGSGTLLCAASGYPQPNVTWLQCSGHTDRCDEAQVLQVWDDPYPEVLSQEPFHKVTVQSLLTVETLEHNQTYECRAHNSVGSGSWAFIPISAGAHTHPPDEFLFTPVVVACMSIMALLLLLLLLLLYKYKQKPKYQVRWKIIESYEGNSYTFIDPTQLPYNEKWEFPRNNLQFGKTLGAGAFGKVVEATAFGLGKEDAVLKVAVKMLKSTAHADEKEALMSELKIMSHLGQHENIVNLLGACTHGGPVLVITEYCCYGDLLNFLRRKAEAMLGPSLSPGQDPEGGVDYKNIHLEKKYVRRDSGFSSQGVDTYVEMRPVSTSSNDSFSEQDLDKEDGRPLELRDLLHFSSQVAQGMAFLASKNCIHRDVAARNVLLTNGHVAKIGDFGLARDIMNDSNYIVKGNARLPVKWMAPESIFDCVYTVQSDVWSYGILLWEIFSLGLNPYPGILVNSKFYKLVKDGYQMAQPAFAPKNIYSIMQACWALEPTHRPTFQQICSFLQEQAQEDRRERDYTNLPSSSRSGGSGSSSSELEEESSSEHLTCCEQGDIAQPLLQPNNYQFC

Row | IC50 | Compound
1 | 0.9 nM | CCc1ccc(-n2cc(C(=O)NOC(C)C)c(=O)c3cnc(Nc4ccc(C5CCN(CCO)CC5)cc4)nc32)cc1 [Cpd 184, 8-(4-ethyl-phenyl)-2-{4-[1-(2-hydroxy-ethyl)-piperidin-4-yl]-phenylamino}-5-oxo-5,8-dihydro-pyrido[2,3-d]pyrimidine-6-carboxylic acid isopropoxy-amide]
2 | 0.57 nM | CONC(=O)c1cn(-c2ccc3c(c2)CCC3)c2nc(Nc3ccc(CCN4CC[C@@H](F)C4)cc3)ncc2c1=O [Cpd 252, 2-(4-{2-[(3R)-(3-fluoro-pyrrolidin-1-yl)]-ethyl}-phenylamino)-8-indan-5-yl-5-oxo-5,8-dihydro-pyrido[2,3-d]pyrimidine-6-carboxylic acid methoxy-amide]
3 | 0.43 nM | CCc1ccc(-n2cc(C(=O)NOC)c(=O)c3cnc(Nc4cccc(OC5CCCNC5)c4)nc32)cc1 (centres unmarked) [Cpd 248, 8-(4-ethyl-phenyl)-5-oxo-2-[3-(piperidin-3-yloxy)-phenylamino]-5,8-dihydro-pyrido[2,3-d]pyrimidine-6-carboxylic acid methoxy-amide]
4 | 0.29 nM | CCc1ccc(-n2cc(C(=O)NOC)c(=O)c3cnc(Nc4ccc(C5CCCCN5CC)cc4)nc32)cc1 (centres unmarked) [Cpd 245, 8-(4-ethyl-phenyl)-2-[4-(1-ethyl-piperidin-2-yl)-phenylamino]-5-oxo-5,8-dihydro-pyrido[2,3-d]pyrimidine-6-carboxylic acid methoxy-amide]
5 | 1.8 nM | CCc1ccc(-n2cc(C(=O)NOC)c(=O)c3cnc(Nc4ccc(C5CCN(S(N)(=O)=O)CC5)cc4)nc32)cc1 [Cpd 179, 8-(4-ethyl-phenyl)-5-oxo-2-[4-(1-sulfamoyl-piperidin-4-yl)-phenylamino]-5,8-dihydro-pyrido[2,3-d]pyrimidine-6-carboxylic acid methoxy-amide]
6 | 1 nM | CCc1ccc(-n2cc(C(=O)NOC)c(=O)c3cnc(Nc4cccc(OCCOC)c4)nc32)cc1 [Cpd 215, 8-(4-ethyl-phenyl)-2-[3-(2-methoxy-ethoxy)-phenylamino]-5-oxo-5,8-dihydro-pyrido[2,3-d]pyrimidine-6-carboxylic acid methoxy-amide]
7 | 0.9 nM | CCc1ccc(-n2cc(C(=O)NOC)c(=O)c3cnc(Nc4ccc(C5CCN(CCS(C)(=O)=O)CC5)cc4)nc32)cc1 [Cpd 96, 8-(4-ethyl-phenyl)-2-{4-[1-(2-methanesulfonyl-ethyl)-piperidin-4-yl]-phenylamino}-5-oxo-5,8-dihydro-pyrido[2,3-d]pyrimidine-6-carboxylic acid methoxy-amide]
8 | 0.55 nM | CONC(=O)c1cn(-c2ccc3c(c2)CCC3)c2nc(Nc3ccc(CCN4CCC[C@@H]4CO)cc3)ncc2c1=O [Cpd 101, (R)-2-{4-[2-(2-hydroxymethyl-pyrrolidin-1-yl)-ethyl]-phenylamino}-8-indan-5-yl-5-oxo-5,8-dihydro-pyrido[2,3-d]pyrimidine-6-carboxylic acid methoxy-amide]

Second part, the compound before the results:

Row | Compound | IC50
9 | CONC(=O)c1cn(-c2ccc3c(c2)CCC3)c2nc(Nc3ccc(CCN4CC[C@H](F)C4)cc3)ncc2c1=O [Cpd 253, 2-(4-{2-[(3S)-(3-fluoro-pyrrolidin-1-yl)]-ethyl}-phenylamino)-8-indan-5-yl-5-oxo-5,8-dihydro-pyrido[2,3-d]pyrimidine-6-carboxylic acid methoxy-amide] | 0.66 nM
10 | CCONC(=O)c1cn(C2CCCC2)c2nc(Nc3ccc(CCN4CCN(C)CC4)cc3)ncc2c1=O [Cpd 49, 8-cyclopentyl-2-{4-[2-(4-methyl-piperazin-1-yl)-ethyl]-phenylamino}-5-oxo-5,8-dihydro-pyrido[2,3-d]pyrimidine-6-carboxylic acid ethoxy-amide] | 1.7 nM
11 | CONC(=O)c1cn(-c2ccc3c(c2)CCC3)c2nc(Nc3ccc(CCN4CCN(CC(=O)O)CC4)cc3)ncc2c1=O [Cpd 147, (4-{2-[4-(8-indan-5-yl-6-methoxycarbamoyl-5-oxo-5,8-dihydro-pyrido[2,3-d]pyrimidin-2-ylamino)-phenyl]-ethyl}-piperazin-1-yl)-acetic acid] | 0.94 nM
12 | CONC(=O)c1cn(-c2ccc3c(c2)CCC3)c2nc(Nc3ccc(CCC(=O)NS(C)(=O)=O)cc3)ncc2c1=O [Cpd 153, 8-indan-5-yl-2-[4-(3-methanesulfonylamino-3-oxo-propyl)-phenylamino]-5-oxo-5,8-dihydro-pyrido[2,3-d]pyrimidine-6-carboxylic acid methoxy-amide] | 3.2 nM
13 | CONC(=O)c1cn(-c2ccc3c(c2)CCC3)c2nc(Nc3ccc(CCN4CCN(S(C)(=O)=O)CC4)cc3)ncc2c1=O [Cpd 146, 8-indan-5-yl-2-{4-[2-(4-methanesulfonyl-piperazin-1-yl)-ethyl]-phenylamino}-5-oxo-5,8-dihydro-pyrido[2,3-d]pyrimidine-6-carboxylic acid methoxy-amide] | 1.2 nM
14 | CONC(=O)c1cn(-c2ccc3c(c2)CCC3)c2nc(Nc3cccc(C4CCN(C)CC4)c3)ncc2c1=O [Cpd 273, 8-indan-5-yl-2-[3-(1-methyl-piperidin-4-yl)-phenylamino]-5-oxo-5,8-dihydro-pyrido[2,3-d]pyrimidine-6-carboxylic acid methoxy-amide] | 1 nM
15 | CCONC(=O)c1cn(C2CCCCC2)c2nc(Nc3ccc(CCN4CCN(C)CC4)cc3)ncc2c1=O [Cpd 19, 8-cyclohexyl-2-{4-[2-(4-methyl-piperazin-1-yl)-ethyl]-phenylamino}-5-oxo-5,8-dihydro-pyrido[2,3-d]pyrimidine-6-carboxylic acid ethoxy-amide] | 1 nM
16 | CONC(=O)c1cn(-c2ccc3c(c2)CCC3)c2nc(Nc3cccc(NC(=O)CN(C)C)c3)ncc2c1=O [Cpd 229, 2-[3-(2-dimethylamino-acetylamino)-phenylamino]-8-indan-5-yl-5-oxo-5,8-dihydro-pyrido[2,3-d]pyrimidine-6-carboxylic acid methoxy-amide] | 0.42 nM
17 | CONC(=O)c1cn(-c2ccc3c(c2)CCC3)c2nc(Nc3cccc(C4(O)CCN(CC(F)(F)F)CC4)c3)ncc2c1=O [Cpd 277, 2-{3-[4-hydroxy-1-(2,2,2-trifluoro-ethyl)-piperidin-4-yl]-phenylamino}-8-indan-5-yl-5-oxo-5,8-dihydro-pyrido[2,3-d]pyrimidine-6-carboxylic acid methoxy-amide] | 2.7 nM
18 | CONC(=O)c1cn(-c2ccc3c(c2)CCC3)c2nc(Nc3ccc(C4CCN(CCO)CC4)cc3)ncc2c1=O [Cpd 88, 2-{4-[1-(2-hydroxy-ethyl)-piperidin-4-yl]-phenylamino}-8-indan-5-yl-5-oxo-5,8-dihydro-pyrido[2,3-d]pyrimidine-6-carboxylic acid methoxy-amide] | 1.3 nM
19 | CCN1CCC(Oc2ccc(Nc3ncc4c(=O)c(C(=O)NOC)cn(-c5ccc6c(c5)CCC6)c4n3)cc2)CC1 [Cpd 312, 2-[4-(1-ethyl-piperidin-4-yloxy)-phenylamino]-8-indan-5-yl-5-oxo-5,8-dihydro-pyrido[2,3-d]pyrimidine-6-carboxylic acid methoxy-amide] | 0.2 nM
20 | CONC(=O)c1cn(C2CCCCC2)c2nc(Nc3ccc(C4CCN(C(C)=O)CC4)cc3)ncc2c1=O [Cpd 28, 2-[4-(1-acetyl-piperidin-4-yl)-phenylamino]-8-cyclohexyl-5-oxo-5,8-dihydro-pyrido[2,3-d]pyrimidine-6-carboxylic acid methoxy-amide] | 2.2 nM
